Measured values: ChEMBL document CHEMBL1201862, “PubChem BioAssay data set” (2004)
Active and inactive are the calls of the source.

Legend:
[1] = target: Protein-tyrosine kinase 2-beta (Homo sapiens, UniProt Q14289);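 note: potency of inhibitors of PYK2 kinase phosphorylation of poly-GT substrate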
[2] = target: T1, E3 ubiquitin-protein ligase XIAP (Homo sapiens, UniProt P98170); experiment: Counter Screen using XIAP-Bir3 for Chemical Antagonists of Bir1/2 domains of IAP-family anti-apoptotic proteins. [Related pubchem assays (depositor defined):AID1018, AID1449, AID1514, AID1638, AID1749, AID1750, AID488957, AID488963]
T1 sequence (P98170 whole entry): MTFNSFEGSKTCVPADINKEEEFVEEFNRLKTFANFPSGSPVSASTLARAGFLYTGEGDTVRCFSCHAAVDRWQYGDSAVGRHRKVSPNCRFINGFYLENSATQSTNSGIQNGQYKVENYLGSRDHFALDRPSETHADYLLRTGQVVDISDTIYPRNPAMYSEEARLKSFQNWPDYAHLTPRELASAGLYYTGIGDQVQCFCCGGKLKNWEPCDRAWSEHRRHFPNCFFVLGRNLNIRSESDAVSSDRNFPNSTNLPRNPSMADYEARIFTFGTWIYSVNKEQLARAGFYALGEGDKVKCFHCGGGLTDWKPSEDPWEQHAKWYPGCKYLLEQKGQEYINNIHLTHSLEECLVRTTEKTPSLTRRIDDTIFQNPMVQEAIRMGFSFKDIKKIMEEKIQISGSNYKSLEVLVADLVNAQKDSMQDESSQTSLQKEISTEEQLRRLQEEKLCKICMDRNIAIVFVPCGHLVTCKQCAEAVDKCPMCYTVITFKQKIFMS

[3] = target: T1, E3 ubiquitin-protein ligase XIAP; experiment: XIAP antagonists, biochemical, IAP family, fluorescence polarization (AID 1018); format: functional
[4] = target: Sphingosine 1-phosphate receptor 2 (Homo sapiens, UniProt O95136); experiment: Dose Response Cell Based Assay for Agonists of the S1P2 Receptor of Purchased Analogues. [Related pubchem assays: 729, 843, 854, 736 ]; format: functional
Chain of Sphingosine 1-phosphate receptor 2 (O95136 whole entry): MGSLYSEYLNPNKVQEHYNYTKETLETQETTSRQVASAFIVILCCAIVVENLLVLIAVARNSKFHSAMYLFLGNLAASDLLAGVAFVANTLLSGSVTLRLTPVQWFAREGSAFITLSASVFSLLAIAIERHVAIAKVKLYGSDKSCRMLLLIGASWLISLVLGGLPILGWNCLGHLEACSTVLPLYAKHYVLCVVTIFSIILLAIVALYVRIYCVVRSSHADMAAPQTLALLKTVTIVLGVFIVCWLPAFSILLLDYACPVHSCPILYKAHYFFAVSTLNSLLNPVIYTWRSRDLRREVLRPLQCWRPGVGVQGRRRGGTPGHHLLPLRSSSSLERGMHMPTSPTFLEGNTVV

[5] = Luminescence Cell-Based Dose Response to Identify Activators of 5'UTR Stem-Loop Driven Prion Protein mRNA Translation in H4-C Neuroglioblastoma Cells. [Related pubchem assays: 1829 (Project Summary), 1814 (Primary HTS)]; format: functional
[6] = Luminescence Cell-Based Dose Response HTS to Identify Activators of Luciferase Translation or Activity in H4 […] Cells. [Related pubchem assays: 1829 (Project Summary), 1814 (Primary HTS)]; format: functional
[7] = system: H4; experiment: Luminescence Cell-Based Dose Response HTS to Identify Activators of 5'UTR Stem-Loop Driven Prion Protein mRNA Translation in H4 Neuroglioblastoma Cells. [Related pubchem assays: 1829 (Project Summary), 1814 (Primary HTS)]; format: functional; conditions: Homo sapiens
[8] = Luminescence Cell-Based Dose Response to Identify Activators of Luciferase Translation or Activity in H4-C Neuroglioblastoma Cells. [Related pubchem assays: 1829 (Project Summary), 1814 (Primary HTS)]; format: functional
[9] = Luminescence Cell-Based Dose Confirmation to Identify Activators of 5'UTR Stem-Loop Driven Alpha-Synuclein mRNA Translation in H4 Neuroglioblastoma Cells. [Related pubchem assays: 1829 (Project Summary), 1814 (Primary HTS)]; format: functional
[10] = target: Glyceraldehyde-3-phosphate dehydrogenase (Homo sapiens, UniProt P04406)
Chain of Glyceraldehyde-3-phosphate dehydrogenase (P04406 whole entry): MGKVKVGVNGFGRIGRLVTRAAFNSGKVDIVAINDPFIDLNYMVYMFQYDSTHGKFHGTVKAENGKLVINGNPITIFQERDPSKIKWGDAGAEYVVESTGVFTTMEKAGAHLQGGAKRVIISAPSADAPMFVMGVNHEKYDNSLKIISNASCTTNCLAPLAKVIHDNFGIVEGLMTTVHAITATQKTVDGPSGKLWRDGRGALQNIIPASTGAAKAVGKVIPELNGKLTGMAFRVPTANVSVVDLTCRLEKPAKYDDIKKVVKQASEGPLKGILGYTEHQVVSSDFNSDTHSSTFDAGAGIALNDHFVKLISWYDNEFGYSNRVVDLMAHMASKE

[11] = target: T2, Bcl-2-related protein A1 (Mus musculus, UniProt Q07440); experiment: Bfl-1 inhibitors blocking BH3 peptide binding, confirmation, biochemical, TR-FRET, mouse Bfl-1 (AID 621);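 note: TR-FRET binding of GST-Bfl-1 to FITC-labelled Bid peptide via terbium antibody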
T2 sequence (Q07440 whole entry): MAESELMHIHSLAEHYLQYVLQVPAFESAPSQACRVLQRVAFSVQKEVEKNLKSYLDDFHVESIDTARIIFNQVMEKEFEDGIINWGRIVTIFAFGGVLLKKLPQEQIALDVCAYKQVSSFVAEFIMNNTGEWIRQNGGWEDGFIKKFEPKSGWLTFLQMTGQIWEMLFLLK

[12] = target: T2, Bcl-2-related protein A1; experiment: Bfl-1 binding inhibitors, SAR follow-up, biochemical, fluorescence polarization (AID 1070)
[13] = target: T3, Induced myeloid leukemia cell differentiation protein Mcl-1 (Homo sapiens, UniProt Q07820); experiment: MCL1-BIM BH3 interaction inhibitors, dose response, biochemical, fluorescence polarization, BIM-BH3 peptide, 1536-well (AID 2217)
T3 sequence (Q07820 whole entry): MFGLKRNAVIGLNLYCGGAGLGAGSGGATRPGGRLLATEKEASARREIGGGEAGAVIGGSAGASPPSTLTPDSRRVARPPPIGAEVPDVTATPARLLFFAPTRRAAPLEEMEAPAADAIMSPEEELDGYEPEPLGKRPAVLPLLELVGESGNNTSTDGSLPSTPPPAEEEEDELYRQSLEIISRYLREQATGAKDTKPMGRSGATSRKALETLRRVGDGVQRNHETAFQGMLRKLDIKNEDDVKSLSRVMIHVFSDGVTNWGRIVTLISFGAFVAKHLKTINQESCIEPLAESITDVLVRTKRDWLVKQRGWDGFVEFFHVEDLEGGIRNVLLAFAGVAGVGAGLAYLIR

[14] = target: Bcl-2-like protein 1 (Homo sapiens, UniProt Q07817); experiment: BCL-XL inhibitors, dose response, selectivity assay for MCL1 inhibitor project, biochemical, fluorescence polarization, 1536-well (AID 2218)
Chain of Bcl-2-like protein 1 (Q07817 whole entry, the tested form may be a part): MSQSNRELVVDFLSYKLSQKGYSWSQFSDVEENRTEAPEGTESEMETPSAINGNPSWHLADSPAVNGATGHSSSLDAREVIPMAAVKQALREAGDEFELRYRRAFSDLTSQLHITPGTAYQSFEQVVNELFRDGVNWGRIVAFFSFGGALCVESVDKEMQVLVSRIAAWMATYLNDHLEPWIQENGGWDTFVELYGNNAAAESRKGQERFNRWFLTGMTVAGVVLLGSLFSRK

[15] = target: T4, Carboxy-terminal domain RNA polymerase II polypeptide A small phosphatase 1 (Homo sapiens, UniProt Q9GZU7); experiment: inhibitors of CTDSP1, concentration-response testing, biochemical assay, absorbance-based, actives from ultra-high-throughput screening (AID 540297); format: functional
T4 sequence (Q9GZU7 whole entry): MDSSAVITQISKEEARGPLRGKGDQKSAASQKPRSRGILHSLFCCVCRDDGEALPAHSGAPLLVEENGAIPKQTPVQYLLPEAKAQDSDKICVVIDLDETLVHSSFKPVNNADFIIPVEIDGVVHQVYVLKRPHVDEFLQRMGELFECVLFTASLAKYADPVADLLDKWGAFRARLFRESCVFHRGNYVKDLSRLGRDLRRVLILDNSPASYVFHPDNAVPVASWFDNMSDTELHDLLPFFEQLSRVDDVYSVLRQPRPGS

[16] = target: T5, Caspase-6 (Homo sapiens, UniProt P55212); experiment: human caspase-6 inhibitors, dose response, biochemical, VEID-R110 fluorescence, cherry-pick (AID 720632)
T5 sequence (P55212 whole entry): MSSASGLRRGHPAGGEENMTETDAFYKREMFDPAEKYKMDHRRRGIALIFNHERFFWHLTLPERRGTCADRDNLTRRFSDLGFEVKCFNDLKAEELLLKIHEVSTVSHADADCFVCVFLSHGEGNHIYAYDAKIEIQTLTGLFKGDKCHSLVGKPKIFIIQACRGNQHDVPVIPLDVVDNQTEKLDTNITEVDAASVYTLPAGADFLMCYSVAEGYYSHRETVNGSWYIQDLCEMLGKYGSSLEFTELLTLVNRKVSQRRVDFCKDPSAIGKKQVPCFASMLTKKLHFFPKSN

[17] = target: Caspase-7 (Homo sapiens, UniProt P55210); experiment: human caspase-7 inhibitors, dose response, selectivity assay for caspase-6 inhibitor project, biochemical, DEVD-R110 fluorescence, cherry-pick (AID 743295)
Chain of Caspase-7 (P55210 24-198 limits assumed): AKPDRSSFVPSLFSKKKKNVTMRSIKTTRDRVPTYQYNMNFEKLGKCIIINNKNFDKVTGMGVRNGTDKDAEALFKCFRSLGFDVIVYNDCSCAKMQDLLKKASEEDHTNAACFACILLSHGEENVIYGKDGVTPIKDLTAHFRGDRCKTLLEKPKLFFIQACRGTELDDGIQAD
Chain of Caspase-7 (P55210 207-303 limits assumed): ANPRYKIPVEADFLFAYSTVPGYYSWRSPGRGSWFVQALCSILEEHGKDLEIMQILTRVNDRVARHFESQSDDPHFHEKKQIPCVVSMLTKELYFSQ

[18] = target: Caspase-8 (Homo sapiens, UniProt Q14790); experiment: caspase-8 inhibition counter-screen, dose response, selectivity assay for caspase-6 inhibitor project, biochemical, Z-IETD-R110 fluorescence, cherry-picked samples (AID 743294)
Chain of Caspase-8 (Q14790 217-374 limits assumed): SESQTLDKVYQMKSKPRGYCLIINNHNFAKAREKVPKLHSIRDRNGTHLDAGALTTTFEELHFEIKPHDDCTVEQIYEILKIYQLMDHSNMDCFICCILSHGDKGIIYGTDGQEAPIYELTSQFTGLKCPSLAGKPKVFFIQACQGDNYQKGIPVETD
Chain of Caspase-8 (Q14790 385-479 limits assumed): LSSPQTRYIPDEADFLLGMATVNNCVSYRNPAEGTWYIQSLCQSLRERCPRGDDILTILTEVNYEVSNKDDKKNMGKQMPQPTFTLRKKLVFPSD

[19] = inhibitors of intracellular T. cruzi replication, confirmation, NIH3T3 host cells, beta-gal luminescence (AID 2044); format: functional, cell-based;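 note: intracellular parasites grown in NIH/3T3 mouse fibroblasts as host cells; luminescent beta-galactosidase reporter signal from transgenic T. cruzi replicating inside host cells; inhibitors lower the luminescence signal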
[20] = cytotoxicity toward NIH3T3 fibroblasts, dose response, counter-screen, cell-based, ATP luminescence, mouse fibroblasts (AID 2010); format: functional;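 note: cells exposed to compound for about 90 hours before reading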
[21] = cells; format: functional
[22] = cells
[23] = Luminescent dose response cell-based high throughput screening assay for inhibitors of the Janus kinase 2 mutant JAK2V617F. [Related pubchem assays: 1446 (Primary screen.), 1521 (Confirmation assay.), 1486 (Counter screen.)]; format: functional
[24] = system: Vero; experiment: host cell cytotoxicity of antiviral hits, dose response, cytotoxicity control for West Nile virus antiviral project, secondary assay (AID 1650); format: functional; conditions: Chlorocebus sabaeus
[25] = system: Vero; experiment: West Nile virus antiviral activity, cell-based, CPE readout (AID 1621); format: functional; conditions: Chlorocebus sabaeus
[26] = target: T3, Induced myeloid leukemia cell differentiation protein Mcl-1; format: functional
[27] = Luminescence Cell-Based Dose Retest to Confirm Inhibitors of Cancer Stem Cells. [Related pubchem assays (depositor defined):AID2717, AID2721]; format: functional; conditions: Homo sapiens
[28] = enhancers of respiration in Yfh1-depleted yeast, dose response, Friedreich's ataxia, plus single-dose screen (AID 1465); format: functional;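 note: yeast depleted of Yfh1p frataxin homolog grown on glycerol needing respiration; WST-1 tetrazolium dye reduction as measure of cellular dehydrogenase metabolic activity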
[29] = target: T6, Heat shock factor protein 1 (Mus musculus, UniProt P38532); experiment: HSF1 potentiators in luciferase reporter cells, confirmation, cell-based, NIH3T3, luminescence, dose retest (AID 435004); format: functional;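 note: stress induced by proteasome inhibitor MG132 added 30 min after compound; luciferase reporter driven by HSF1 response element in NIH3T3 cells; actives raise luminescence as potentiators of the MG132 stress response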
T6 sequence (P38532 whole entry): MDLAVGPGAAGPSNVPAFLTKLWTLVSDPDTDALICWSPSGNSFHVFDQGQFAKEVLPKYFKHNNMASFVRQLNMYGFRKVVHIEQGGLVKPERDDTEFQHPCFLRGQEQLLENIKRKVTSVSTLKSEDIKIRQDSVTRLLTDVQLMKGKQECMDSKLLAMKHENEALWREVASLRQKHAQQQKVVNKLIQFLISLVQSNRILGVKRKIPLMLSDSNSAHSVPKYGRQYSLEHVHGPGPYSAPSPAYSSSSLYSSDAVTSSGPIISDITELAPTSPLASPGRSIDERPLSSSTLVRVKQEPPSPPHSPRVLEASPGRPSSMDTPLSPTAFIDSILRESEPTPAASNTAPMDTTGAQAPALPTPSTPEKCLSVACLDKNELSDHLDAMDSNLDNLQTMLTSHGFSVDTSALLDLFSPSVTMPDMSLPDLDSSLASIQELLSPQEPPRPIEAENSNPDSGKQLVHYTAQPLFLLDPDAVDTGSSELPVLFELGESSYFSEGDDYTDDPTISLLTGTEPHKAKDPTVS

[30] = target: T7, Microphthalmia-associated transcription factor (Homo sapiens, UniProt O75030); experiment: TRPM1 promoter luciferase signal decrease, dose response, MITF inhibitor project, cell-based, SK-MEL-5, cherry-picked, set 3 (AID 493073); format: functional
T7 sequence (O75030 whole entry): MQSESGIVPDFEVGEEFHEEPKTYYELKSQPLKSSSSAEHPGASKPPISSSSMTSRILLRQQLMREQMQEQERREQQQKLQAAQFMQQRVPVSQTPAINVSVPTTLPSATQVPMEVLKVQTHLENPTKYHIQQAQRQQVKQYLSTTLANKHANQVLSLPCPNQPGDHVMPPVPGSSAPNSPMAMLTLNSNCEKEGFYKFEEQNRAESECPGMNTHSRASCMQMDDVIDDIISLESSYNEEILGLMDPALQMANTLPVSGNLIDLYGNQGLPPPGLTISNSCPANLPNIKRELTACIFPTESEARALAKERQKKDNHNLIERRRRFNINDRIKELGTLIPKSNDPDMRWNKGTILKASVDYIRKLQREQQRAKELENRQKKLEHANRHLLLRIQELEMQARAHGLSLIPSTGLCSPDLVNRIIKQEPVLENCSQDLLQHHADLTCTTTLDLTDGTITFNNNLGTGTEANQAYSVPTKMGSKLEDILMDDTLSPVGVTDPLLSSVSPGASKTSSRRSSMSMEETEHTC

[31] = target: Peroxisome proliferator-activated receptor gamma/Nuclear receptor corepressor 2 (Homo sapiens, UniProt P37231+Q9Y618); experiment: Counterscreen for NR2E3 inverse agonists: TR-FRET-based biochemical high throughput dose response assay to identify inverse agonists of the interaction between peroxisome proliferator-activated receptor gamma (PPARg) and nuclear receptor co-repressor 2 (NCOR2).; format: functional
[32] = target: Photoreceptor-specific nuclear receptor (Homo sapiens, UniProt Q9Y5X4); experiment: NR2E3 inverse agonists, dose response, biochemical, TR-FRET (AID 463256); format: functional
Chain of Photoreceptor-specific nuclear receptor (Q9Y5X4 whole entry): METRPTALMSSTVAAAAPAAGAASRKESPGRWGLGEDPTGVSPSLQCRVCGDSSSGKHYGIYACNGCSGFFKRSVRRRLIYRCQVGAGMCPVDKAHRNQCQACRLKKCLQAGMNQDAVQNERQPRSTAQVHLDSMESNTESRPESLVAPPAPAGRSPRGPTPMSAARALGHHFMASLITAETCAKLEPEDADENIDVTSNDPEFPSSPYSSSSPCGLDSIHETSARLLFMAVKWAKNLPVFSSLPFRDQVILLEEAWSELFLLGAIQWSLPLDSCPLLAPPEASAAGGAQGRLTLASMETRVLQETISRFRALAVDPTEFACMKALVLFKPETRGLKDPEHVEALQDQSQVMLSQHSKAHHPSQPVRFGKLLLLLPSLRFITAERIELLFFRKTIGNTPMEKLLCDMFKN

[33] = target: T8, Small ubiquitin-related modifier 1 (Homo sapiens, UniProt P63165); experiment: inhibitors of SUMO1 peptide binding, dose response, biochemical, fluorescence polarization, uHTS hits (AID 624382); format: functional; conditions: read-out: IC50_Mean
T8 sequence (P63165 whole entry): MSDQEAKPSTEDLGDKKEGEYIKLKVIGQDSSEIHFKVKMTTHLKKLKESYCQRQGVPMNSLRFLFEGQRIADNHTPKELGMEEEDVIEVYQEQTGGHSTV

[34] = target: T8, Small ubiquitin-related modifier 1; experiment: inhibitors of SUMO1 partner interactions, dose response, biochemical, FRET (AID 624383); format: functional; conditions: read-out: IC50_Mean
[35] = target: Oxytocin receptor (Homo sapiens, UniProt P30559); experiment: Fluorescence-based cell-based high throughput dose response assay for potentiators of Oxytocin Receptor (OXTR). [Related pubchem assays: 434985 (Confirmation screen (OXTR potentiators in triplicate)), 2481 (Summary (OXTR potentiators)), 2445 (Primary screen (OXTR potentiators in singlicate))]; format: functional
[36] = target: Potassium voltage-gated channel subfamily KQT member 2 (Rattus norvegicus, UniProt O88943, W236L); experiment: KCNQ2 channel potentiators, dose response, mechanism study for KCNQ2 potentiator project, cell-based, automated electrophysiology (AID 2603); format: functional
Chain of Potassium voltage-gated channel subfamily KQT member 2 (O88943 whole entry W236L): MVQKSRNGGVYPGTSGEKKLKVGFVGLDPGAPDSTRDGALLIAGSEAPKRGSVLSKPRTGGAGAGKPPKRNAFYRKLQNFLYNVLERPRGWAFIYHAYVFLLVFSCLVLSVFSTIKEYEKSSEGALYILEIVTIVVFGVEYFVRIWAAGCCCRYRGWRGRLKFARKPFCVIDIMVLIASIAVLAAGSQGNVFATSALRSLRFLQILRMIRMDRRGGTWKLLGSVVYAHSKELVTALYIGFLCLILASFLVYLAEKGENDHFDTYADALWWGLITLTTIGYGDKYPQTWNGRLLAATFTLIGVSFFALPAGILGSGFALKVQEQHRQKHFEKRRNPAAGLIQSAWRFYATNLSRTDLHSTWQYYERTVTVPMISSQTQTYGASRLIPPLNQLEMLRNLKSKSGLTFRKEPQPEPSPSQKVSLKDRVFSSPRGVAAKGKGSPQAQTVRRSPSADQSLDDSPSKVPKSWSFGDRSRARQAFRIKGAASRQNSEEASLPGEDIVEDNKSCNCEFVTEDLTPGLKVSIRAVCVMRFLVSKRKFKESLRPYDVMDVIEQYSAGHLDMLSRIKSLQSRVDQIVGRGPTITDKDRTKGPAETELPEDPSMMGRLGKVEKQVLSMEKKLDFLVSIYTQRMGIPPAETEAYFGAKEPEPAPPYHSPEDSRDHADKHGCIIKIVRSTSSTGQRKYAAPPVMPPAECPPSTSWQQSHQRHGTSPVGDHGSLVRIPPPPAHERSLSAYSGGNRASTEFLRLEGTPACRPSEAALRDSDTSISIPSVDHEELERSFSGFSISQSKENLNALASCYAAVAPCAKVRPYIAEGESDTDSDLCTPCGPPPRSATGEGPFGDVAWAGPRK

[37] = cytotoxicity in HPDE-C7 cells, cell-based, fluorescence, HTS (AID 430); format: functional; conditions: Homo sapiens
[38] = cytotoxicity in KRAS-transformed pancreatic duct cells, primary screen, cell-based, fluorescence, HTS (AID 431); format: functional; conditions: Homo sapiens;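 note: cell line used: HPDE-C7K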

Chain of Protein-tyrosine kinase 2-beta (Q14289 whole entry): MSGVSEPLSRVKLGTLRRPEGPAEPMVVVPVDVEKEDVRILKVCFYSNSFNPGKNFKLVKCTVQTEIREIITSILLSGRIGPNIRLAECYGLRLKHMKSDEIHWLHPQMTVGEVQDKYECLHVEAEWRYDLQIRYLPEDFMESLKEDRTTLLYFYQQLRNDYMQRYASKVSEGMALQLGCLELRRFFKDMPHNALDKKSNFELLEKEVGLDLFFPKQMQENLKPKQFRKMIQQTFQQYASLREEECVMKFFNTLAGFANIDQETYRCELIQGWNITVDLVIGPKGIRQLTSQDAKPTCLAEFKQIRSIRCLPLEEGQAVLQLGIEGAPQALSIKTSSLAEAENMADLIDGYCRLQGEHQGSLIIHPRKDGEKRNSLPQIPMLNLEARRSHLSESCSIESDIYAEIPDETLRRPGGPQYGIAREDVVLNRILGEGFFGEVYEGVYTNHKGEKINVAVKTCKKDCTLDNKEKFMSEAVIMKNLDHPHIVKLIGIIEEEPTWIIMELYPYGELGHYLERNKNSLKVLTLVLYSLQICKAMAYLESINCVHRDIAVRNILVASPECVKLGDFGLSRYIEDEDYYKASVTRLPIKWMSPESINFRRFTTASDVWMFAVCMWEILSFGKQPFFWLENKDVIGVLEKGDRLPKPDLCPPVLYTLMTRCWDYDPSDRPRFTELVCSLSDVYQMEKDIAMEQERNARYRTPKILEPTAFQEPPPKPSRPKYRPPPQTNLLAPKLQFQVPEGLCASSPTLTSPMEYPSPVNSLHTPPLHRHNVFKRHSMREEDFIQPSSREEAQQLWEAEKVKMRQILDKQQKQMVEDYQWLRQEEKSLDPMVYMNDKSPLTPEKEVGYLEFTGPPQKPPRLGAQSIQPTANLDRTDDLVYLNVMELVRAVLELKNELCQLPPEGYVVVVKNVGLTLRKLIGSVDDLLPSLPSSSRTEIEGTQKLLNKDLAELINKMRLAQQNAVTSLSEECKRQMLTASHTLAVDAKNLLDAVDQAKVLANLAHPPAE

O=C1NCCc2c1[nH]c1c(Cl)ccc(Cl)c21
IC50 [1]: 10.2 µM (not active)

COc1ccc(NC(=O)/C(=C/c2cccnc2)NC(=O)c2cccs2)cc1
IC50 [2]: > 100 µM (inactive) | IC50 [3]: > 100 µM (not active)

COCCNC(=O)CN(C)CC(=O)c1cc(C)n(Cc2ccccc2)c1C
EC50 [4]: > 30 µM (not active)

CS(=O)(=O)c1nc(S(=O)(=O)c2ccc(Cl)cc2)c(N2CCC3(CC2)OCCO3)s1
EC50 [5]: > 12 µM (not active) | EC50 [6]: < 0.1 µM (active) | EC50 [7]: > 120 µM (not active) | EC50 [8]: > 12 µM (not active) | EC50 [9]: 0.71 µM (active)

CN1CCN(C2=C(Cl)C(=O)N(c3cc(Cl)cc(Cl)c3)C2=O)CC1
IC50 [10]: > 100 µM (not active) | IC50 [11]: 1.66 µM (active) | IC50 [12]: 2.44 µM (active)

Cc1cccc(NC(=O)CNC(=O)c2cccc(-n3cccc3)c2)c1C
IC50 [13]: 8.77 µM (active) | IC50 [14]: > 109 µM (not active) | IC50 [15]: 3.97 µM (active) | AC50 [16]: 1.55 µM (active) | AC50 [17]: > 70 µM (inactive) | AC50 [18]: > 70 µM (inactive)

CN(C)CCNc1c2c(c(C#N)c3nc4ccccc4n13)CCCC2
EC50 [19]: < 0.1 µM (active) | EC50 [20]: > 60 µM (not active) | IC50 [21]: 20.9 µM (active) | EC50 [22]: 0.11 µM (active)

c1ccc2c(c1)CSc1sccc1C2=C1CCNCC1
IC50 [23]: 1.71 µM (active)

CN1CCN(CCCN2c3ccccc3Sc3ccc(Cl)cc32)CC1 [PROCHLORPERAZINE]
CC50 [24]: 29.4 µM (active) | IC50 [25]: 19.1 µM (active) | IC50 [26]: 3.77 µM (active) | AC50 [27]: 4.93 µM (active)

CC1=C(C#N)C(=O)N(CCO)C(=O)/C1=N/Nc1ccc2c(c1)COC2=O
EC50 [28]: > 100 µM (active) | EC50 [29]: 9.38 µM (active) | AC50 [30]: 9.69 µM (active)

COc1cccc(-c2csc3nnc(SCC(=O)c4ccc(NC(C)=O)cc4)n23)c1
IC50 [31]: 6.73 µM (active) | IC50 [32]: 4.9 µM (active) | IC50 [33]: > 66.6 µM (inactive) | IC50 [34]: 10.6 µM (active)

Sc1nnc(-c2ccncc2)n1/N=C/c1cn(-c2ccccc2)nc1-c1ccccc1
EC50 [35]: > 29.9 µM (not active)

Cc1ccc(NC(=O)C2CC2c2ccccc2)c([N+](=O)[O-])c1 (stereo not drawn)
EC50 [36]: 11.4 µM (active)

O=c1c2c3c(sc2n2cnnc2n1Cc1ccccc1)CN(Cc1ccccc1)CC3
EC50 [37]: 12.9 µM (active) | EC50 [38]: 11.6 µM (active)
